Like-named read-outs stand apart in the source and are kept apart here.
Assays:
[1] = system: PC43-10 (RFC) CHO cells; experiment: Growth inhibition, PC43-10 CHO cells expressing human RFC; type: cell-based, Chinese hamster; conditions: Cricetulus griseus, 96 h, read-out: IC50 PC43-10 (RFC)
[2] = system: RT16 (FRα) CHO cells; experiment: Growth inhibition, RT16 CHO cells expressing human FRα; type: cell-based, Chinese hamster
[3] = system: R2 (MTXRIIOuaR2-4) CHO cells; experiment: Growth inhibition, transporter-null R2 CHO cells; type: cell-based, Chinese hamster; conditions: Cricetulus griseus, 96 h, read-out: IC50 R2
[4] = system: HPNE (RFC) cells; experiment: Proliferation inhibition, HPNE normal pancreatic epithelial cells; type: cell-based; conditions: Homo sapiens, folate- and glycine-free RPMI, 25 nM leucovorin
Text: (§1) The RFC-, PCFT-, and FR-null MTXRIIOua^R2–4 (R2), and RFC- (PC43-10), PCFT- (R2/PCFT4), FRα- (RT16), and FRβ- (D4) expressing CHO sublines were previously described.[62]−[64],[76] HPAC pancreatic cancer cells were generously provided by Dr. Yubin Ge (Karmanos Cancer Institute, Detroit, MI). Human pancreatic normal epithelial (HPNE) cells[67] were a gift from M. Oulette (University of Nebraska Medical Center, Omaha, NE). KB human nasopharyngeal carcinoma cells were purchased from the American Type Culture Collection (Manassas, VA). All human cell lines were validated by STR analysis by Genetica DNA Laboratories (Burlington, NC). Cell lines were tested for Mycoplasma by PCR using a Mycloplasma testing kit (Venor GeM Mycoplasma Detection Kit, Sigma). Frozen stocks were generated from authenticated Mycoplasma-free cultures.

[5] = system: HPAC (RFC/PCFT) cells; experiment: Proliferation inhibition, HPAC pancreatic adenocarcinoma cells; type: cell-based, human; conditions: HPAC cells, folate- and glycine-free RPMI, 25 nM leucovorin, mean (SE)
Text: as §1

[6] = system: KB (RFC/PCFT/FRα) cells; experiment: Growth inhibition, KB nasopharyngeal carcinoma cells; type: cell-based, human; conditions: folate-free RPMI 1640, 2 nM leucovorin, mean (SE)
Procedure: The CHO cells were cultured in α-minimal essential medium (MEM) supplemented with 10% bovine calf serum (Fisher Scientific), penicillin (1000 U/mL)/streptomycin (1000 μg/mL), and 2 mM L-glutamine at 37 °C with 5% CO2. All of the R2 transfected cells (PC43-10, RT16, R2/PCFT4) were cultured in complete α-MEM media plus 1 mg/mL G418. Prior to the cytotoxicity assays (see below), RT16 and D4 cells were cultured for 3 days in complete folate-free RPMI 1640 (without added folate), and R2/PCFT4 and R2 cells were cultured in complete folate-free RPMI 1640 supplemented with dialyzed fetal bovine serum (Fisher Scientific) and 25 nM leucovorin plus 1 mg/mL G418. KB cells were routinely cultured in folate-free RPMI 1640 medium, supplemented with 10% fetal bovine serum (Fisher Scientific), penicillin-streptomycin solution, and 2 mM L-glutamine at 37 °C with 5% CO2.
For growth inhibition studies, cells (CHO, KB) were plated in 96-well dishes (∼2500–5000 cells/well, total volume of 200 μL medium) over a range of antifolate concentrations.[69],[77] The medium was folate-free RPMI 1640 with 10% dialyzed serum and antibiotics supplemented with 25 nM leucovorin for experiments with R2, PC43-10, and R2/PCFT4 cells. For experiments with RT16, D4, and KB cells, cells were cultured in folate-free RPMI medium with 10% dialyzed fetal bovine serum and antibiotics; the medium was supplemented with 2 nM leucovorin. […] Incubations were routinely for up to 96 h. Viable cells (reflecting cell viability) were assayed with Cell Titer Blue reagent (Promega, Madison, WI), with fluorescence measured (590 nm emission, 560 nm excitation) with a fluorescence plate reader.

[7] = system: R2/PCFT4 (PCFT) CHO cells; experiment: Growth inhibition, R2/PCFT4 CHO cells expressing human PCFT; type: cell-based, Chinese hamster; conditions: Cricetulus griseus, 96 h, read-out: IC50 R2/PCFT4 (PCFT)
[8] = molecular target: T1, SHMT1 (Homo sapiens, UniProt P34896); experiment: SHMT1 inhibition assay coupled with MTHFD2, Ki; type: biochemical; conditions: purified His-SHMT1, 50 μM THF, 25 °C; mean (SD), at least 3 replicates
T1 construct: full-length SHMT1 with an N-terminal His6-tag; made in house; host or cells: E. coli Rosetta (DE3)pLysS
T1 sequence (P34896 1-483): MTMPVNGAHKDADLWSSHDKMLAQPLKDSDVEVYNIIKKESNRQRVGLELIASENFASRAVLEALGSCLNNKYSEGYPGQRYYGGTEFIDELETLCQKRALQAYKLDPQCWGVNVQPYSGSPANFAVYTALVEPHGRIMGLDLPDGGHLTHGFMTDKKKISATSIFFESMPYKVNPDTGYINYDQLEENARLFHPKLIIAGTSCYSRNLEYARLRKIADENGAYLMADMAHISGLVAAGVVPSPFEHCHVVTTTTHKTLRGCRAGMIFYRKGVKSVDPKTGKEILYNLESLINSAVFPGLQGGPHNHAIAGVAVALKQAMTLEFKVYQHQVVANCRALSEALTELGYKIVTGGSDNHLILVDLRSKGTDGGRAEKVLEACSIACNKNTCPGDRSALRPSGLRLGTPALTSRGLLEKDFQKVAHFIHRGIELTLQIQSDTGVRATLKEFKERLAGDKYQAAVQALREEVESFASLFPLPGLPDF
Procedure: Kinetic measurements were recorded in triplicate using a flat, black-bottom, black-walled 96-well plate (Greiner Bio-One, 655900) and a BioTek Synergy Neo2 Plate Reader. […] To assay SHMT1 or SHMT2 (SHMT1/2) enzymes, a coupled reaction with His-MTHFD2 in 200-fold molar excess was used where the production of NADH was monitored by fluorescence with excitation at 360 nm and emission at 470 nm at 25 °C. The reactions contained 5 nM His-SHMT1/2, 50 μM THF, 20 mM serine, 10 μM His-MTHFD2, 2.5 mM NAD^+, and a range of inhibitor concentrations (final concentrations). The reactions were performed in buffer containing 20 mM sodium phosphate, pH 7.5, 100 mM KCl, 0.2 mM EDTA, and 5 mM β-Me. A BioTek Synergy Neo2 Plate Reader was used to record kinetic measurements in triplicate in a UV-transparent 96-well plate (Costar 3635) for GARFTase and AICARFTase assays and a black-well, black-bottom 96-well plate (Corning 3603). To calculate IC50 values for each inhibitor, initial velocities were graphed as a function of inhibitor concentrations and fit with a three-parameter nonlinear regression (GraphPad Prism 8.0). The equation [Ki = IC50/([S]/KM + 1)] was used to convert IC50’s to Ki values.

[9] = molecular target: T2, human GARFTase (Homo sapiens, UniProt P22102); experiment: GARFTase inhibition assay, Ki (10-formyl THF to THF, absorbance 298 nm); type: biochemical; conditions: purified His-GARFTase, 40 μM 10-formyl THF, 37 °C; mean (SD), at least 3 replicates
T2 construct: formyltransferase domain of human GARFTase (residues 808–1010); made in house; host or cells: E. coli Rosetta (DE3)pLysS
T2 sequence (P22102 808-1010): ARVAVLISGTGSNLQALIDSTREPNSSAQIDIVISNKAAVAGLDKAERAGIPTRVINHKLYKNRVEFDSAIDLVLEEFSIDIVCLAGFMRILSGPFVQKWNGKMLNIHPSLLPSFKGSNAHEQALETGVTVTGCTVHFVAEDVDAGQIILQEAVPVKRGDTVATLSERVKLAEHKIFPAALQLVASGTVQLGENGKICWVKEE

[10] = system: D4 (FRβ) CHO cells; experiment: Growth inhibition, D4 CHO cells expressing human FRβ; type: cell-based, Chinese hamster; conditions: for IC50: Cricetulus griseus, CHO
[11] = molecular target: T3, human ATIC (Homo sapiens, UniProt P31939); experiment: AICARFTase (ATIC) inhibition assay, Ki; type: biochemical; conditions: for Ki: purified His-ATIC, AICARFTase activity, 50 μM 10-formyl THF, 25 °C, mean (SD), at least 3 replicates
T3 construct: N-terminal His6-tagged full-length human ATIC; made in house; host or cells: E. coli Rosetta (DE3)pLysS
Procedure: The cells were grown at 37 °C in 1 L cultures of LB media containing […] and […] until OD600 reached 0.6. Protein expression was induced by the addition of isopropyl β-D1-thiogalactopyranoside (IPTG, 500 μM).
His-ATIC was purified by Ni-NTA chromatography (Gold Biotechnology).[36] […] His-ATIC was eluted in 1 column volume fractions, 5 times with buffer containing 300 mM imidazole, 25 mM Tris-HCl, pH 7.5, 300 mM NaCl, and 5 mM β-Me. Size exclusion chromatography on a Superdex 200 16/60 (GE Healthcare) column was used for final purification using 20 mM Tris-HCl, pH 7.5, 150 mM NaCl, 50 mM KCl, 5 mM EDTA, and 5 mM dithiothreitol.
MTHFD2 activities were assayed by a reaction with methylene THF and NAD^+. NADH production was measured by fluorescence (excitation 340 nm, emission 480 nm). Reaction conditions included 100 nM MTHFD2, 5 μM methylene THF, and concentrations of small-molecule inhibitor ranging from 0.02 nM to 2000 nM; NAD^+ (2.5 mM) was added to initiate the reaction. The reaction buffer consisted of 50 mM Tris-HCl, pH 7.5, 250 mM NaCl, 5 mM magnesium chloride, 5% glycerol, and 0.5 mM TCEP. […] To assay SHMT1 or SHMT2 (SHMT1/2) enzymes, a coupled reaction with His-MTHFD2 in 200-fold molar excess was used where the production of NADH was monitored by fluorescence with excitation at 360 nm and emission at 470 nm at 25 °C. The reactions contained 5 nM His-SHMT1/2, 50 μM THF, 20 mM serine, 10 μM His-MTHFD2, 2.5 mM NAD^+, and a range of inhibitor concentrations (final concentrations). The reactions were performed in buffer containing 20 mM sodium phosphate, pH 7.5, 100 mM KCl, 0.2 mM EDTA, and 5 mM β-Me. […] To calculate IC50 values for each inhibitor, initial velocities were graphed as a function of inhibitor concentrations and fit with a three-parameter nonlinear regression (GraphPad Prism 8.0). The equation [Ki = IC50/([S]/KM + 1)] was used to convert IC50’s to Ki values.

[12] = CHO cells expressing human RFC, 25 nM leucovorin, mean (SE)
[13] = CHO cells expressing human FRα, 96 h, 2 nM leucovorin, mean (SE), read-out: IC50 RT16 (FRα)
[14] = Cricetulus griseus, 96 h, CHO cells expressing human FRα, 96 h, 2 nM leucovorin, mean (SE), read-out: IC50 RT16 (FRα)
[15] = transporter-null CHO cells, 25 nM leucovorin, mean (SE)
[16] = CHO cells expressing human PCFT, 25 nM leucovorin, mean (SE)
[17] = 96 h, CHO cells expressing human FRβ, 96 h, 2 nM leucovorin, mean (SE), read-out: IC50 D4 (FRβ)

T3 sequence (P31939 whole entry): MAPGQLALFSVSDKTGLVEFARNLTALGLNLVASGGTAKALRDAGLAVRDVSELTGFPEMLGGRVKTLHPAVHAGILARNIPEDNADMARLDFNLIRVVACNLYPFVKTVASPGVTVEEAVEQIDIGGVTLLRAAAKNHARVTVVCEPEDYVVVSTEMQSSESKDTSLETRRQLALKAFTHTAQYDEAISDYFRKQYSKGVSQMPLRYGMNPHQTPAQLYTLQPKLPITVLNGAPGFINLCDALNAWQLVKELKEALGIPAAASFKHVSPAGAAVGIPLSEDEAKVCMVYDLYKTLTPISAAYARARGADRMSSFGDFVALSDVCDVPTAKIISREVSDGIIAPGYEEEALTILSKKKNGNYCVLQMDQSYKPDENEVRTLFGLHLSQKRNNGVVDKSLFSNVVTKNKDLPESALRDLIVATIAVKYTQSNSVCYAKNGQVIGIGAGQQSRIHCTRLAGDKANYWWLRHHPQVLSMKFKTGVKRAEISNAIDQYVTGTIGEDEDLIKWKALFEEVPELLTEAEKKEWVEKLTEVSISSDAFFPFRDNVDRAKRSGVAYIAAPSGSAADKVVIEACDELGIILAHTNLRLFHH

SMILES | IC50 [1, 12] [nM] | IC50 [2, 13] [nM] | IC50 [2, 14] [nM] | IC50 [3, 15] [nM] | IC50 [4] [nM] | IC50 ([5]; Homo sapiens, HPAC) [nM] | IC50 ([6]; Homo sapiens, KB) [nM] | IC50 [7, 16] [nM] | IC50 [6] [nM] | IC50 [7] [nM] | Ki [9] [nM] | Ki [11] [nM] | IC50 [10, 17] [nM] | also measured
Nc1nc2ccn(CCCCc3ccc(C(=O)N[C@@H](CCC(=O)O)C(=O)O)s3)c2c(=O)[nH]1 [Compound 16] | > 1000 | 2.82 | < 3 | > 1000 | > 5000 | 3210 | 2.58 | > 1000 |  |  |  |  |  | Ki [8]: 1040 nM
Nc1nc2ccn(CCCCc3ccc(C(=O)N[C@@H](CCC(=O)O)C(=O)O)c(F)c3)c2c(=O)[nH]1 [Compound 1, (4-(4-(2-Amino-4-oxo-3,4-dihydro-5H-pyrrolo[3,2-d]pyrimidin-5-yl)butyl)-2-fluorobenzoyl)-L-glutamic Acid] |  |  |  |  | > 5000 | 196 | 1.3 |  | 1.25 | 479 | 3130 |  |  | IC50 [1]: 224 nM; IC50 ([2]; Cricetulus griseus, RT16, read-out: IC50 FRα (cell-based inhibition), Figure 14, from Table 3 (RT16 cells)): 1 nM; IC50 ([3]; CHO): > 1000 nM; IC50 ([10]; read-out: IC50 FRβ (cell-based inhibition), Figure 14, from Table 3 (D4 cells)): 1 nM
Nc1nc2ccn(CCCc3ccc(C(=O)N[C@@H](CCC(=O)O)C(=O)O)cc3)c2c(=O)[nH]1 [Compound 2] | 41.9 |  | 49.9 | > 1000 | > 5000 | 310 | 6.73 | 191 |  |  |  | 13400 | 2.37 | IC50 [5]: 310 nM; difference between D4 (FRβ) and RT16 (FRα) IC50 ([10]; RT16 versus D4 CHO cells): 20- to 40 fold
Nc1nc2ccn(CCCSc3ccc(C(=O)N[C@@H](CCC(=O)O)C(=O)O)cc3)c2c(=O)[nH]1 [Compound 7, (4-((3-(2-Amino-4-oxo-3,4-dihydro-5H-pyrrolo[3,2-d]pyrimidin-5-yl)propyl)thio)benzoyl)-L-glutamic Acid] | > 1000 | 3.13 | < 3 | > 1000 | > 5000 | > 5000 | 31.5 |  | 31.5 | > 1000 |  | 4810 |  | 
Nc1nc2ccn(CCCCc3csc(C(=O)N[C@@H](CCC(=O)O)C(=O)O)c3F)c2c(=O)[nH]1 [Compound 14, (4-(4-(2-Amino-4-oxo-3,4-dihydro-5H-pyrrolo[3,2-d]pyrimidin-5-yl)butyl)-3-fluorothiophene-2-carbonyl)-L-glutamic Acid] | > 1000 |  | 19.8 | > 1000 | > 5000 | 1600 | 6 | > 1000 |  |  | 2490 | 930 | 6.2 | fold better than 1, ATIC ([11]; ratio of Ki values relative to compound 1): ~4 fold
